Common to all, as to test: modified broth dilution assay, 96-well plates (MIC)
Common to all, as to type: cell-based

One assay has as its system Klebsiella pneumonia. The note with it: Klebsiella pneumoniae, overnight 37.0° C., absorbance 600 nm. The protocol: (§1) In order to determine the minimal inhibitory concentration (MIC) for the bioflavonoids (BC), allicin (AL) and ajoene (AJ) on selected Gram-positive bacteria, Gram-negative bacteria and yeast, a modified broth dilution assay using 96-well plates, according to Wiegand, Hilpert and Hancock (2008), was performed.
(§2) The microorganisms for the study were obtained from Cardiff University. The cultures used in the study were prepared by aseptic inoculation of microorganisms from pure plate cultures into 50 ml of sterile nutrient broth. The cultures were incubated overnight at 37.0° C. without agitation. Prior to use the cultures were washed by centrifugation in a desk top centrifuge at 3000 RPM for 15 minutes and the pellet resuspended in sterile saline (0.85% NaCl).
(§3) In order to determine the activity of the compounds both individually as well as in combination, a range of concentrations of each compound was used in a doubling dilution. The highest concentration used was dependent on the organism in question (whether Gram-positive bacteria, Gram-negative bacteria or yeast). From the highest concentration used in the test the samples were diluted five times in order to give six different concentrations per compound.
(§4) The allicin samples were aqueous solutions and were therefore diluted directly using H2O. However, the ajoene was in oil form and the bioflavonoids were in powder form, neither of which were water soluble. Before dilution the ajoene and bioflavonoids were solubilised by creation of a stock solution using 80% DMSO.
(§5) The wells on the 96-well plates were prepared in triplicate as follows: the AL, AJ and BC were pre-diluted in Eppendorf tubes at 10× the required final concentration. 20 μl of each dilution was added per well to give a 1:10 dilution in the final 200 μl per well. A matrix of concentrations of mixtures of allicin:bioflavonoid, ajoene:bioflavonoid and allicin:ajoene:bioflavonoid was used, with the dilution gradients of allicin and ajoene running inversely to bioflavonoids.
(§6) 130 μl of sterile nutrient broth (Nutrient Broth No. 3 (Sigma 70149)) was added to each well.
(§7) 50 μl of each microorganism suspended in saline was added to each well (except for the negative control). Each species of microorganism was added to two plates, the first for the individual (control) assays and the second for the matrix study. The plates were incubated at 37.0° C. overnight without agitation.
(§8) The plates were scanned individually using a Tecan plate reader at 600 nm and the absorbance recorded in a comma-delimited file for analysis.
(§9) The absorbance for each sample was compared to the growth (absorbance) of the control cultures (without treatment) in order to determine the MIC (all values blanked against negative control to negate absorbance of plate and broth). The mean and standard deviation of the triplicate experiments were determined and the means plotted on scatter diagrams for comparison.

The subject of another assay is Escherichia coli. The settings on record: overnight 37.0° C., absorbance 600 nm. Here is the method: as §1, §2, §3, §4, §5, §6, §7, §8, §9
The test system of the next assay is Pseudomonas aeruginosa. The settings on record: overnight 37.0° C., absorbance 600 nm. Here is the method:
as §1, §2, §3, §4, §5, §6, §7, §8, §9

Another assay has as its system Bacillus subtilis. The settings on record: overnight 37.0° C., absorbance 600 nm. The protocol: as §1, §2, §3, §4, §5, §6, §7, §8, §9
The subject of the next assay is Staphylococcus aureus. The note with it: overnight 37.0° C., absorbance 600 nm. The protocol:
as §1, §2, §3, §4, §5, §6, §7, §8, §9

The subject of the next assay is Candida tropicalis. The note with it: overnight 37.0° C., absorbance 600 nm. The protocol: as §1, §2, §3, §4, §5, §6, §7, §8, §9

For `C=CCSSC=CC[S+]([O-])CC=C` (mixture of isomers) [Ajoene, (E,Z)-4,5,9-trithiadodeca-1,6,11-triene 9-oxide], the MIC with Klebsiella pneumonia is 12 µg/mL; with Escherichia coli it was 24 µg/mL; in the assay on Pseudomonas aeruginosa it was 12 µg/mL; with Bacillus subtilis it was 24 µg/mL; in the assay on Staphylococcus aureus, 48 µg/mL; with Candida tropicalis, 24 µg/mL.

Regarding `C=CCS[S+]([O-])CC=C` (stereo not drawn) [Allicin, 2-Propene-1-sulfinothioic acid S-2-propenyl], the MIC is 46 µg/mL with Klebsiella pneumonia; 18.4 µg/mL in the assay with Escherichia coli; 9.2 µg/mL with Pseudomonas aeruginosa; 9.2 µg/mL in the assay with Bacillus subtilis; 27.6 µg/mL in the assay with Staphylococcus aureus; 9.2 µg/mL with Candida tropicalis.

Source of the values: patent US20230285493A1, “ANTIMICROBIAL COMPOSITION” (Mootral SA, priority 2014, published 2023).
